Patent publication US20260250312A1, “ANTIBACTERIAL COMPOUNDS ELIMINATING DORMANT BACTERIAL CELLS” (UNIVERSITÉ D'AIX-MARSEILLE, priority 2022, published 2026)
In brackets after ≈: the same amount, converted by molar mass. Several values for one entry are separate records, joined by “and”; a condition that tells them apart may be missing. Equal entries are not always repeated. Where two headings read alike, the source gives them in different places. Marks after values point to notes of the source that are not given here.

What was measured:
[1] = tested on: Staphylococcus aureus (ATCC25923); assay: Microdilution MIC assay (CLSI-based), S. aureus; type: cell-based; conditions: 20 hours incubation at 35-37° C., MHB; for MIC: read-out: Minimum inhibitory concentration S. aureus ATCC25923
Procedure: (§1) The antibacterial activity of compounds was measured using a standard microdilution assay based on the Clinical and Laboratory Standards Institute (CLSI) guidelines. This method was slightly modified. Indeed, assay volumes were increased to 200 μL to improve reproducibility. The chemical compounds to be tested were in the form of salts for biological testing.
(§2) Bacteria tested: Antibacterial activities of the compounds were tested on Staphylococcus aureus (ATCC25923), Enterococcus faecalis (ATCC29212), Escherichia coli ([…]) and Pseudomonas aeruginosa (ATCC27853).
(§3) Preparation of the Preculture: Mueller Hinton Agar plates were inoculated with frozen biological strain in order to obtain separate colonies and the plates were incubated during 24 h at 35-37° C. 3 colonies of similar aspect were picked out, resuspended in 5 mL of fresh Mueller Hinton broth 1× (MHB) and incubated with shaking (160 rpm) at 35-37° C. overnight.
(§4) 0.1 mL of bacteria in exponential phase were suspended in 9.9 mL of MHB (1:100 dilution). 0.1 mL of the 1:100 dilution were dispensed into the wells of microplates containing 0.1 ml of serial compounds dilutions to yield ca. 5×10^5 CFU/mL. In parallel, the stocks solutions of chemical compounds were first diluted in appropriate solvent to a final concentration of 5 mg/mL. 8 μL were dispended into the first wells of the microplates containing 0.1 ml of sterile broth and a 0.5 cascade dilution was performed in MHB from 0.2 mg/mL. One control was made for each strain tested. […] Tests were performed in triplicate.
(§5) Reading of the Results: After incubation, the filter was replaced with a transparent film, and an optical density reading was then taken in an iEMS plate spectrophotometer at 620 nm. Calculation of the minimum inhibitory concentration (MIC) was performed.

[2] = tested on: Enterococcus faecalis (ATCC29212); assay: Microdilution MIC assay (CLSI-based), E. faecalis; type: cell-based; conditions: 20 hours incubation at 35-37° C., MHB; for MIC: read-out: Minimum inhibitory concentration E. faecalis ATCC29212
Procedure: as §1, §2, §3, §4, §5

[3] = tested on: Pseudomonas aeruginosa (ATCC27853); assay: Microdilution MIC assay (CLSI-based), P. aeruginosa; type: cell-based; conditions: 20 hours incubation at 35-37° C., MHB; for MIC: read-out: Minimum inhibitory concentration P. aeruginosa ATCC27853
Procedure: as §1, §2, §3, §4, §5

[4] = tested on: Escherichia coli (ATCC28922); assay: Microdilution MIC assay (CLSI-based), E. coli; type: cell-based; conditions: 20 hours incubation at 35-37° C., MHB; for MIC: read-out: Minimum inhibitory concentration E. coli ATCC28922
Procedure: as §1, §2, §3, §4, §5

CHO-K1 cells = assay: WST1 cytotoxicity test; type: cell-based, Chinese hamster; conditions: WST1, 24 hours at 37° C.; for IC50: read-out: IC50 CHO
Excerpt: Cytotoxicity: The test WST1 was used to measure the cytotoxic activity of the compounds of the invention. The test WST1 is a colorimetric test allowing to measure the viability and the degree of cell proliferation. It is based on cleavage of the colorless tetrazolium salts WST-1 (4—[3-(4-iodophenyl)-2-(4-nitrophenyl)-2H-5-tetrazolio]-1,3-benzene disulfonate) with mitochondrial dehydrogenases to the yellow-colored formazan derivative, which may be quantified by spectrophotometry at 420-480 nm. The WST1 test was performed on Chinese hamster ovary (CHO) cells. The CHO-K1 cells (ATCC, USA) were kept in culture in McCoy's 5A medium supplemented with 10% fetal calf serum, 2 mM of L-glutamine and a mixture of penicillin-streptomycin (100 U/ml: 10 μg/mL). The culture was incubated at 37° C. under an atmosphere enriched in CO2 (5%), and subcultured every two days. The cells were transferred into 96-well plates (25,000 cells/mL) in whole McCoy's 5A medium, and maintained for 24 hours at 37° C. under a humid atmosphere enriched in CO2 (5%). Increasing concentrations of tested compounds were added to the wells, each compound was tested in replicates and 8 growth controls containing the cells in the medium alone were included in each series of tests. After 24 hours at 37° C. (5% CO2), the culture medium was removed, the cells were rinsed in phosphate buffer (PBS) and 50 μL of PBS containing 10% of reagent WST1 were added to each well. After 20 minutes of incubation at 37° C., the results were read by spectrophotometry at 450 nm. The results are expressed in dose-response relationships, modeled by nonlinear regression analysis using the TableCurve software.
Cytotoxicity: The same WST1 test as described in Example 2 above was used.

[5] = Staphylococcus aureus, ATCC25923, 20 h
[6] = Enterococcus faecalis, ATCC29212, 20 h
[7] = Pseudomonas aeruginosa, ATCC27853, 20 h
[8] = Escherichia coli, ATCC28922, 20 h
[9] = Cricetulus griseus, CHO-K1, 24 h

Row | Compound | Minimum inhibitory concentration S. aureus ATCC25923 [1] [µg/mL] | MIC [1] [µM] | Minimum inhibitory concentration E. faecalis ATCC29212 [2] [µg/mL] | MIC [2] [µM] | Minimum inhibitory concentration P. aeruginosa ATCC27853 [3] | MIC [3] [µM] | Minimum inhibitory concentration E. coli ATCC28922 [4] [µg/mL] | MIC [4] [µM] | IC50 CHO (CHO-K1 cells) [µg/mL] | IC50 (CHO-K1 cells) [µM] | MIC [1, 5] | MIC [2, 6] | MIC [3, 7] | MIC [4, 8] | IC50 (CHO-K1 cells; [9])
1 | COC(=O)[C@H](NC(=O)CC[C@@H](C)[C@H]1CCC2C3C(CC[C@@]21C)[C@@]1(C)CC[C@H](NCCCNCCCN)C[C@H]1C[C@H]3O)C(C)C (stereo partly drawn) [Compound S007, methyl ((4R)-4-((3S,5S,7R,10S,13R,17R)-3-((3-((3-aminopropyl)amino)propyl)amino)-7-hydroxy-10,13-dimethylhexadecahydro-1H-cyclopenta[a]phenanthren-17-yl)pentanoyl)-D-valinate] | 8 (≈ 12.9 µM) | 12.5 (≈ 7.74 µg/mL) | 8 (≈ 12.9 µM) | 12.5 (≈ 7.74 µg/mL) | 16 µg/mL (≈ 25.9 µM) | 25 (≈ 15.5 µg/mL) | 4 (≈ 6.46 µM) | 6.25 (≈ 3.87 µg/mL) | 70.20 (≈ 113 µM) | 113 | – | – | – | – | –
2 | COC(=O)[C@H](Cc1ccccc1)NC(=O)CC[C@@H](C)[C@H]1CCC2C3C(CC[C@@]21C)[C@@]1(C)CC[C@H](NCCCNCCNCCCN)C[C@H]1C[C@H]3O (stereo partly drawn) [Compound S029, methyl ((4R)-4-((3S,5S,7R,10S,13R,17R)-3-((3-((2-((3-aminopropyl)amino)ethyl)amino)propyl)amino)-7-hydroxy-10,13-dimethylhexadecahydro-1H-cyclopenta[a]phenanthren-17-yl)pentanoyl)-L-phenylalaninate] | – | – | – | – | – | – | – | – | – | – | 12.5 µM and 8 µg/mL | 12.5 µM and 8 µg/mL | 50 µM and 32 µg/mL | 50 µM and 32 µg/mL | 47.8 µM and 33.9 µg/mL
3 | COC(=O)CNC(=O)CC[C@@H](C)[C@H]1CCC2C3C(CC[C@@]21C)[C@@]1(C)CC[C@H](NCCCN(CCCN)CCCN)C[C@H]1C[C@H]3O (stereo partly drawn) [Compound S005, methyl ((4R)-4-((3S,5S,7R,10S,13R,17R)-3-((3-(bis(3-aminopropyl)amino)propyl)amino)-7-hydroxy-10,13-dimethylhexadecahydro-1H-cyclopenta[a]phenanthren-17-yl)pentanoyl)glycinate] | – | – | – | – | – | – | – | – | – | – | 12.5 µM and 8 µg/mL | 200 µM and 128 µg/mL | > 200 µM and > 126 µg/mL | > 200 µM and > 126 µg/mL | > 100 µM and > 64 µg/mL
4 | COC(=O)[C@@H](NC(=O)CC[C@@H](C)[C@H]1CCC2C3C(CC[C@@]21C)[C@@]1(C)CC[C@H](NCCCCN)C[C@H]1C[C@H]3O)C(C)C (stereo partly drawn) [Compound S043, methyl ((4R)-4-((3S,5S,7R,10S,13R,17R)-3-((4-aminobutyl)amino)-7-hydroxy-10,13-dimethylhexadecahydro-1H-cyclopenta[a]phenanthren-17-yl)pentanoyl)-L-valinate] | – | – | – | – | – | – | – | – | – | – | 25 µM and 16 µg/mL | 25 µM and 16 µg/mL | 200 µM and 128 µg/mL | 50 µM and 32 µg/mL | 107 µM and 61.9 µg/mL
5 | COC(=O)CNC(=O)CC[C@@H](C)[C@H]1CCC2C3C(CC[C@@]21C)[C@@]1(C)CC[C@H](NCCCNCCCCNCCCN)C[C@H]1C[C@H]3O (stereo partly drawn) [Compound S004, methyl ((4R)-4-((3S,5S,7R,10S,13R,17R)-3-((3-((4-((3-aminopropyl)amino)butyl)amino)propyl)amino)-7-hydroxy-10,13-dimethylhexadecahydro-1H-cyclopenta[a]phenanthren-17-yl)pentanoyl)glycinate] | – | – | – | – | >200* μM and >128* μg/mL | – | 64 (≈ 98.8 µM) | 100 (≈ 64.8 µg/mL) | – | – | 6.25 µM and 4 µg/mL | 50 µM and 32 µg/mL | – | – | 51.7 µM and 33.5 µg/mL
